Test [1] relates to CPA-induced urinary frequency in rat. Description: Effects on cyclophosphamide (CPA)-induced urinary frequency in rat. Format: in vivo. The settings on record: Wistar female rat, 2 days after CPA, value before administration = 100%. How it is done: 3. Effects of the Compound on the Cyclophosphamide (CPA)-Induced Urinary Frequency in Rat
CPA (150 mg/5 ml/kg) was intraperitoneally administered to a Wistar female rat (Charles river laboratories), and after two days, the experiment was carried out. It was forced to be orally administered with distilled water (30 ml/kg), and then placed in a metabolic cage, and the voided urine weight and the urination frequency were continuously measured for 1 hour. The compound (0.5% methylcellulose solution) 3 or 10 mg/5 ml/kg, or a vehicle (0.5% methylcellulose solution) 5 ml/kg was orally administered, and after 5 to 30 min, the urinary functions were measured after loading water in the same manner as described above. A total voided urine weight was divided by the total urination frequency to determine an effective bladder capacity. With the value before administration of the compound being set at 100%, a rate of change in the effective bladder capacity caused by administration of the compound was determined.
In this test, at 2 days after CPA treatment, the effective bladder capacity was decreased (about 0.5 ml), indicating urinary frequency condition.

Test [2] addresses T1, Human nerve growth factor receptor (Homo sapiens, UniProt P04629).
T1 construct: expressed in transfected cells
Description: Receptor inhibitory activity using cells expressing a nerve growth factor receptor (NGF-dependent intracellular Ca increase, FLIPR). Format: cell-based. The settings on record: HEK293 cells stably expressing Human nerve growth factor receptor; NGF about 100 to 150 ng/ml; Ca concentration change. The procedure:
1. Experiment to Measure a Receptor Inhibitory Activity Using Cells Expressing a Nerve Growth Factor Receptor
The nerve growth factor receptor inhibitory activity was measured by using the increase in a ligand-dependent calcium concentration in cells as an index. HEK293 cells (American Type Culture Collection) that stably expressed Human nerve growth factor receptor were dispensed onto a 96-well poly-D-lysine-coated plate (Product Name: Biocoat, PDL96W black/clear, by Nippon Becton Dickinson) to a 2×10^4 cells/well at the day before the experiment, and incubated overnight at 37° C. under 5% carbon dioxide (CO2) in a culture medium containing 10% fetal bovine serum (FBS) (Product Name: DMEM, Invitrogen Corporation). The culture medium was replaced by a washing solution: a Hank's balanced salt solution)(HBSS), containing a 1.5 μM loading buffer (fluorescent indicator (Product Name: Fluo-4-AM, […].)), 20 mM 2-[4-(2-hydroxyethyl)-1-piperazinyl]ethanesulfonic acid (HEPES)-sodium hydroxide (NaOH), 2.5 mM Probenecid, 0.1% bovine serum albumin (BSA), and left to stand at room temperature for 3 hours, and the cells were washed using a plate washer (Product Name: ELx405, BIO-TEK instrument Corporation) in which a washing solution had been set up. The compound that had been preliminarily dissolved and diluted in a washing solution was added thereto, and set up in a system for measuring a calcium (Ca) concentration in a cell (Product Name: FLIPR, Molecular Devices Corporation). After 5 minutes, a nerve growth factor (NGF, mouse derived 2.5S, Alomone) corresponding on 80% stimulation of a maximum response was added (to a final concentration of about 100 to 150 ng/ml) to measure the change in Ca concentrations in cells. A difference between a maximum value and a minimum value in Ca concentrations in cells was determined, and kept as measurement data. With a response upon addition of NGF being set at 0%, and a response upon addition of a buffer being set at 100%, the concentration causing 50% inhibition was determined as an IC50 value. In the table, Ex represents Compound No. of Examples as described later. From the results of this test, it was confirmed that the compound of the present invention has a nerve growth factor receptor inhibitory activity.

In test [3] the test system is acetic acid-induced painful behaviors in rat. Description: Effects on acetic acid-induced painful behaviors (writhing) in rat. In kind it is in vivo. The settings on record: Wistar male rat; 10 mg/kg oral 5 min before 1% acetic acid i.p.; writhing frequency 10-20 min; vehicle group = 100%. The procedure:
4. Effects of the Compound on Acetic Acid-Induced Painful Behaviors in Rat
1% Acetic acid (99% distilled water) was intraperitoneally administered to a Wistar male rat (Charles river laboratories), and the frequency of pain behavior (writhing) between 10 min and 20 min after administration was measured. The compound (10 mg/5 ml/kg) or a vehicle (0.5% methylcellulose solution) was orally administered 5 mins before the administration of 1% acetic acid. With the frequency of the group administered with the vehicle being set at 100%, the inhibition rate of the writhing behavior frequency by the compound administration was determined.
A general note: Writhing tests count abdominal constrictions after an irritant is injected.

The target in test [4] is T2, trkA receptor (Rattus norvegicus, UniProt P35739).
T2 construct: from tissue; host or cells: Wistar female rat (SLC), skin of the back, in vivo
T2 sequence (P35739 33-799): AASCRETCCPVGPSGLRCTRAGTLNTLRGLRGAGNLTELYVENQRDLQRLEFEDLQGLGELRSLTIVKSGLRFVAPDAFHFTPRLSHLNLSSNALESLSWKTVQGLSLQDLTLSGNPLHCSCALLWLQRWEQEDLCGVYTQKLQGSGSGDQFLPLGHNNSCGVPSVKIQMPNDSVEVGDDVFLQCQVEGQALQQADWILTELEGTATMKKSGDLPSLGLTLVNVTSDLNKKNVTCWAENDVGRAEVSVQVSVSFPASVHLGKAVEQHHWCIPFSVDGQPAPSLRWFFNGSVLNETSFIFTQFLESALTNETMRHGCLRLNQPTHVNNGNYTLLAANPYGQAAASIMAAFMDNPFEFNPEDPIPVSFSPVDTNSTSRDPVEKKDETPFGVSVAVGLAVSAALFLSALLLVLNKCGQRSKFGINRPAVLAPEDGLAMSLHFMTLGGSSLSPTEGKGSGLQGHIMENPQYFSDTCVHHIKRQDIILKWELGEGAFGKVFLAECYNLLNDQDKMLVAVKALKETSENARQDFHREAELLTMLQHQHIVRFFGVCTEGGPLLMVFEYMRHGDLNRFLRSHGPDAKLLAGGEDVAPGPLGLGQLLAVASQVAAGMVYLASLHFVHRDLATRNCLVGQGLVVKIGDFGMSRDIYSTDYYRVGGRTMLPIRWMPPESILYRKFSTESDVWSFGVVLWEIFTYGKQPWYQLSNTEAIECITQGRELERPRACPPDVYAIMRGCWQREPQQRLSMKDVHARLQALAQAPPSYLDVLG
Description: Inhibitory activity on enhanced vascular permeability caused by NGF in rat (Evans blue). The settings on record: Wistar female rat, 10 mg/kg oral, NGF intracutaneous 60 min after administration, vehicle group set at 100%. In kind it is in vivo. The procedure: 2. Evaluation of the Inhibitory Activity of the Compound on Enhanced Vascular Permeability Caused by NGF in Rat
The in vivo trkA receptor inhibitory activity of the compound was examined. A Wistar female rat (SLC) were forced to be orally administered with the compound (0.5% methylcellulose solution) 10 mg/3 ml/kg or a vehicle (0.5% methylcellulose solution) 3 ml/kg. Under ether anesthesia performed at 60 min after administration, physiological saline or 1 ug/ml NGF (NGF, mouse derived 2.5S, Alomone) was intracutaneously administered to the back at 50 ul/site, and then immediately a 1% Evans blue solution (dissolved in physiological saline) was administered through caudal vein at 3 ml/kg. At a time point of 10 min after the administration, the skin on the back was taken, and shaken in formamide for 16 hours. After shaking, an absorption of Evans blue extracted with formamide was measured by an absorption meter (wavelength: 620 nm), and the concentration was determined by a calibration curve method. A value obtained by subtracting the concentration of Evans blue at a site administered with physiological saline from the concentration of Evans blue at a site administered with NGF has a function dependent on NGF, and an inhibitory rate of the compound group was determined with a group administered with vehicle being set at 100%. In this test, it was confirmed that the compound of the present invention has an excellent inhibitory activity on enhanced vascular permeability caused by NGF in rat.

The mark [5] stands for this setting: dose 10 mg/kg oral, evaluation 30-90 min after administration.
Where [6] appears, read: dose 3 mg/kg oral, evaluation 5-65 min after administration.

pIC50: −log10 of the molar value.

T1 sequence (P04629 33-796): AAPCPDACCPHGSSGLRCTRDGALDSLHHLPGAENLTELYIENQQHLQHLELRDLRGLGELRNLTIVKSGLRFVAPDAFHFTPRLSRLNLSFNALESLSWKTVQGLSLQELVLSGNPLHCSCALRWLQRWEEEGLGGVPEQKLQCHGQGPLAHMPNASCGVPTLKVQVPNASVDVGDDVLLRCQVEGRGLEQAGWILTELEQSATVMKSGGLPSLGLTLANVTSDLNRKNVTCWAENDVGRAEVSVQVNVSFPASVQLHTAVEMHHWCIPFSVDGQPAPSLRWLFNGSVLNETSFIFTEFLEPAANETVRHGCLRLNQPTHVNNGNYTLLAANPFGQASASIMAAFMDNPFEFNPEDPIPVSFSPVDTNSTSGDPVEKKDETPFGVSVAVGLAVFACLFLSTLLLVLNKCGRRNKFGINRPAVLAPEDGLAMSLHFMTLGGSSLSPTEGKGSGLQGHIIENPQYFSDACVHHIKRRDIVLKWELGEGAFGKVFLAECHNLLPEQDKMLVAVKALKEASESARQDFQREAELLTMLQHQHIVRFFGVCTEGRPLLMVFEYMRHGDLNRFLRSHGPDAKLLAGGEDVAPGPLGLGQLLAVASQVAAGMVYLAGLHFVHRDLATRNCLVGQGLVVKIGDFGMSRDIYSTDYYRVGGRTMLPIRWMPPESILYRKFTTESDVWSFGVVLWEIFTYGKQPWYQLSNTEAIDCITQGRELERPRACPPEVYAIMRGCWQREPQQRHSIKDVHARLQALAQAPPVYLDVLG

In general, pIC50 refers to the negative decadic logarithm of the IC50, by convention in mol/L. A lower pIC50 goes with a large IC50. On to `COCCN(C)c1nc(C(=O)Nc2cccnc2N2CCC(C(N)=O)CC2)cs1` [Example 380], for which the “Change rate of effective bladder capacity” value (from here on “Change rate”) in test [1] (setting [5]) was determined as 152%. Also, the pIC50 in test [2] is 8.02. Also, the figures for the Inhibition rate in test [3] and in test [4] were 44% and 88%, respectively.

Regarding `NC(=O)C1CCN(c2ccccc2NC(=O)c2csc(-c3ccoc3)n2)CC1` [Example 662, 1-[2-({[2-(3-furyl)-1,3-thiazol-4-yl]carbonyl}amino)phenyl]-4-piperidine carboxamide], the pIC50 in test [2] was 8.62.

As for `NC(=O)CN1CCN(c2ccc(F)cc2NC(=O)c2coc(C3CCOCC3)n2)CC1` [Example 942], the “Change rate” value in test [1] (setting [6]) was found to be 153%. In test [2], this compound had a pIC50 of 8.34. Further, in test [4], the Inhibition rate is reported as 95%.

On to `Cl.NC(=O)C1CCN(c2ncccc2NC(=O)c2coc(N3CCOCC3)n2)CC1` [Example 501, 1-(3-{[(2-morpholin-4-yl-1,3-oxazol-4-yl)carbonyl]amino}pyridin-2-yl)piperidine-4-carboxamide hydrochloride], for which the “Change rate” value in test [1] (setting [5]) was 157%. In test [2], this compound gave a negative logarithm of the IC50 (pIC50) of 7.92. The Inhibition rate in test [3] came out at 55%; in test [4], 85%.

As for `COCCN(C)c1nc(C(=O)Nc2ccccc2N2CCN(CC(N)=O)CC2)cs1.Cl` [Example 356, N-{2-[4-(2-amino-2-oxoethyl)-piperazin-1-yl]phenyl}-2-[(2-methoxyethyl)(methyl)amino]-1,3-thiazole-4-carboxamide hydrochloride], the “Change rate” value in test [1] (setting [5]) worked out at 180%. For the same compound, the pIC50 in test [2] is 8.06. Moreover, the Inhibition rate in test [4] was found to be 97%.

Regarding `NC(=O)CN1CCN(c2ccccc2NC(=O)c2csc(N3CCOCC3)n2)CC1` [Example 151], the “Change rate” value in test [1] (setting [5]) is listed as 147%. This compound showed a pIC50 in test [2] of 7.96. Besides, the Inhibition rate stood at 53% in test [3] and 93% in test [4].

As for `NC(=O)CN1CCN(c2c(F)cccc2NC(=O)c2csc(N3CCC(O)CC3)n2)CC1` [Example 311], in test [2], the pIC50 was 8.59. Moreover, the Inhibition rate in test [4] is 90%.

In the case of `COCCN(C)c1nc(C(=O)Nc2cccnc2N2CCN(CC(N)=O)CC2)cs1` [Example 382], in test [1] (setting [6]), the “Change rate” value was 134%. The pIC50 in test [2] is 7.96. Further, the Inhibition rate in test [3] is given as 38%; in test [4] it was 92%.

These data come from patent US8163746B2, “Azolecarboxamide derivative” (Astellas Pharma Inc., priority 2006, dated 2012).
